Data published in the NIST ThermoML archive (doi:10.1021/je5004669).

Conditions: 101.33 kPa, Liquid; for mass density: Vibrating tube method; for viscosity: Capillary tube (Ostwald / Ubbelohde) method

CCCN.CCCN.O=S(=O)([N-]S(=O)(=O)C(F)(F)F)C(F)(F)F.[Ag+]
Conditions	mass density [kg/m3]	viscosity [mPa·s]
293 K	1637.5	–
293.2 K	–	46.09
298 K	1632	–
298.1 K	–	36
303 K	1626.3	–
303.2 K	–	31.07
308.2 K	–	27.03
313 K	1614.7	–
313.2 K	–	25.28
318.3 K	–	21.28
323 K	1603.5	–
323.2 K	–	18.21
328.2 K	–	15.85
333 K	1592.3	–
333.2 K	–	14.84
